The test system of experiment [1] is integrin αVβ3. The conditions noted are these: cited from earlier work. From the text:
The arginin-glycine-aspatic acid (RGD) sequence is the cell attachment site of a large number of adhesive extracellular matrix, blood, and cell surface proteins, and nearly half of the over 20 known integrins recognize this sequence in their adhesion protein ligands. The integrin-binding selective activity to only one or a few of the RGD-directed integrins can be designed by cyclizing peptides with selected sequences around the RGD.

Experiment [2] relates to αVβ3 integrin-mediated adhesion of A375.S2 cells. Nature of the experiment: CytoSelect cell adhesion assay of A375.S2 cells on extracellular matrix proteins. Conditions: 100 nM; cells adhere to coated plate at 37 °C (1 h in legend, 90 min in method); crystal violet OD 560 nm; five experiments. The format is cell-based, human. On the procedure: Next, we tested the effect of the cyclic RGDfK-liposome on the αVβ3 integrin -mediated cellular adhesion using human malignant melanoma A375.S2 cells on recombinant extracellular matrix proteins.
Figure 1 Evaluating the effect of the cyclic RGDfK-liposome on αVβ3 integrin-mediated cell adhesion. […] A375.S2 cells was pretreated with 100 nM cRGDfV, cRGDfK, cRGDfK-PEG2000-DSPE or the cRGDfK-liposome and allowed to adhere to a coating of fibronectin, collagenI or collagen IV for 1 h at 37 °C before washing and detection of cell adhesion (B) or followed by staining with FITC-labeled mouse anti-human CD51/CD61 monoclonal antibody (C). […] These experiments were performed for five times.
Adhesion assay were performed with CytoSelect TM Cell Adhesion Assay Kit. Principle, A375.S2 cells (1 × 10^6/well) in working solution (serum-free MEM medium, 1mM Mn^2+, and 0.5% bovine serum albumin) were allowed to adhere to extracellular matrix proteins-coated plate for 90 min at 37 °C. Cells were analyzed for binding in the presence or absence of test subjects. Non-adherent cells were removed by a flick wash. The adherent cells were stained with crystal violet and examined the optical density at λmax 560 nm.

Experiment [3] addresses αVβ3 integrin (human (endogenous in A375.S2)) (UniProt P06756).
Chain of UniProt P06756 (P06756 31-1048, chain 1 of 2): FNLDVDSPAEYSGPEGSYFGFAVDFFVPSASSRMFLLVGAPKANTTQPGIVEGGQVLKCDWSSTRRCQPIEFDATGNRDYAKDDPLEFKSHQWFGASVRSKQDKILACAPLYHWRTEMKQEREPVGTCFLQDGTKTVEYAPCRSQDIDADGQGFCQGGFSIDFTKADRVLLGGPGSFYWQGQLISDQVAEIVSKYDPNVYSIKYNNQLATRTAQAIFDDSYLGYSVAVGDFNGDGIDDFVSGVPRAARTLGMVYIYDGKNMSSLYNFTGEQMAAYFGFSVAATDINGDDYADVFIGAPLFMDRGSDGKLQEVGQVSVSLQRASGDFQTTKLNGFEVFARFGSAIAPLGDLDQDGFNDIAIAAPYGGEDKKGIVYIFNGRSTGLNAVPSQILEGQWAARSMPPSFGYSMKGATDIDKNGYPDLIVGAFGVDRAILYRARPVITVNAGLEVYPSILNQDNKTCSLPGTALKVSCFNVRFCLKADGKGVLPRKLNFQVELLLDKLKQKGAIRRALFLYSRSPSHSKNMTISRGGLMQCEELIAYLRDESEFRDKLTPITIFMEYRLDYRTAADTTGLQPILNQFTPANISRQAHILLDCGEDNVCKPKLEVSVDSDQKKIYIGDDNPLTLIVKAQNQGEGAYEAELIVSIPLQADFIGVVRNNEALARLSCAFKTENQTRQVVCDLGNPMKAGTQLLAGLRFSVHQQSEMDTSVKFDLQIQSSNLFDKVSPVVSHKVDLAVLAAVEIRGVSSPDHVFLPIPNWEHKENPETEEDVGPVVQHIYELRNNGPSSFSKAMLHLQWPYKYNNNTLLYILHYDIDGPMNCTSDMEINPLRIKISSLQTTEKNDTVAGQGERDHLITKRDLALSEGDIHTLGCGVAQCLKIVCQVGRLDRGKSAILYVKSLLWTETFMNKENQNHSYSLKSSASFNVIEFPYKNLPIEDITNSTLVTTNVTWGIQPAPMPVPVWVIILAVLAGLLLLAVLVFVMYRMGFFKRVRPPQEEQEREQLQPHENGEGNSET
Chain of UniProt P06756 (P05106 27-788, chain 2 of 2, further chain): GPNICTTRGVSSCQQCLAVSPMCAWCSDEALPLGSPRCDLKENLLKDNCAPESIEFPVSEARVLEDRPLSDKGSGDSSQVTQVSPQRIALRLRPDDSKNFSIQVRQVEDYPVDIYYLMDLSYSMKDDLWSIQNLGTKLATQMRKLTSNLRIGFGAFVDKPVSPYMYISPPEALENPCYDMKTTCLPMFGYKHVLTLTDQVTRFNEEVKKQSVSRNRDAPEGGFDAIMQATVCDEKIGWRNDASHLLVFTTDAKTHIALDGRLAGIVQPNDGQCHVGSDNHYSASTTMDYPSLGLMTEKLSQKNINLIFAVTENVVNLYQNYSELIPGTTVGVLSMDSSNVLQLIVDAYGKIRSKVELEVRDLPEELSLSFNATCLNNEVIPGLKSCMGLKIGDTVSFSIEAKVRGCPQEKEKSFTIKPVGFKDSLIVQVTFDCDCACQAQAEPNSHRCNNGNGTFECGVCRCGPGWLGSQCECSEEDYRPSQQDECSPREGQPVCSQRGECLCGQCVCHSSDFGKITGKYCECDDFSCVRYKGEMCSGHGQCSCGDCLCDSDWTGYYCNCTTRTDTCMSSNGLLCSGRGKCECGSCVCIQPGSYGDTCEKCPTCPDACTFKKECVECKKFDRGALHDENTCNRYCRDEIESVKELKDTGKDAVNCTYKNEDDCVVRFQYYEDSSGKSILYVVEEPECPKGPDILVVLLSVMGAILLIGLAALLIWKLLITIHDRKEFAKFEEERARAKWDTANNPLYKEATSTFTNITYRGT
Experiment [4] shares this target. The source holds these as a separate data set.

Non-standard residues stand in square brackets, D forms with d.

For the molecule `N=C(N)NCCC[C@@H]1NC(=O)[C@H](CCCCN)NC(=O)[C@@H](Cc2ccccc2)NC(=O)[C@H](CC(=O)O)NC(=O)CNC1=O` [cRGDfK], in experiment [1], the “binding affinity for integrin αVβ3” value is on record as “high binding affinity”. Also, in experiment [2], the “A375.S2 cell adhesion to fibronectin, collagen I, and collagen IV” value is given as “markedly reduced”.

For the molecule `CC(C)[C@@H]1NC(=O)[C@@H](Cc2ccccc2)NC(=O)[C@H](CC(=O)O)NC(=O)CNC(=O)[C@H](CCCNC(=N)N)NC1=O` [cRGDfV], the “binding affinity for integrin αVβ3” value in experiment [1] is given as “high binding affinity”. For the same molecule, the “A375.S2 cell adhesion to fibronectin, collagen I, and collagen IV” value in experiment [2] was “markedly reduced”.

In the case of cyclo(RGD[dF]K) (also: conjugated via NHS-PEG2000-DSPE, inserted into PEGylated liposome) [cyclic RGDfK-liposome], in experiment [3], the tumor-to-blood ratio of the 111In-labeled cyclic RGDfK-liposome, mice with a metastatic growth of human melanoma cells (111In-liposome without peptide: 1.3) was determined as 5.6 and the uptake of the 111In-labeled cyclic RGDfK-liposome in tumor (jejunal lymph node), mice with a metastatic growth of human melanoma cells (111In-liposome without peptide: 2.9) came to 6.2 %ID/g. In experiment [4], the tumor-to-blood ratio of the 111In-labeled cyclic RGDfK-liposome, mice without a metastatic growth of human melanoma cells (111In-liposome without peptide: 1) came to 4.8 and the uptake of the 111In-labeled cyclic RGDfK-liposome in tumor, mice without a metastatic growth of human melanoma cells (111In-liposome without peptide: 2.2) stood at 5.3 %ID/g.

Values taken from PMC7866009, “Evaluation of Nanotargeted ^111In-Cyclic RGDfK-Liposome in a Human Melanoma Xenotransplantation Model” (International Journal of Molecular Sciences, 2021).
